In patent US12391737B2, “Soluble NPY2 receptor agonists” (Boehringer Ingelheim International GmbH, priority 2020, dated 2025):
*1 amine or outer side, *2 acyl side, *3 side chain or, on linkers, in order; H or OH if unused. Where a SMILES comes first, the peptide text is derived from it. Side-chain parts run from the residue outwards. The star is where a group is joined. C18 diacid = O=C(O)CCCCCCCCCCCCCCCCC(=O)*; γGlu = O=C(O)[C@H](CCC(=O)[*:2])N[*:1]; Isovaleryl = CC(C)CC(=O)*; Ahx = NCCCCCC(=O)O

Tests used:
[1] = molecular target: T1, Human Neuropeptide Y2 Receptor (Homo sapiens, UniProt P49146); assay: Radioligand binding competition assay (RLB); details: Table 3, 125I-PYY(1-36) competition; read-out: Ki
T1 construct: purchased CHEMICON HTS066M
T1 sequence (P49146 1-381): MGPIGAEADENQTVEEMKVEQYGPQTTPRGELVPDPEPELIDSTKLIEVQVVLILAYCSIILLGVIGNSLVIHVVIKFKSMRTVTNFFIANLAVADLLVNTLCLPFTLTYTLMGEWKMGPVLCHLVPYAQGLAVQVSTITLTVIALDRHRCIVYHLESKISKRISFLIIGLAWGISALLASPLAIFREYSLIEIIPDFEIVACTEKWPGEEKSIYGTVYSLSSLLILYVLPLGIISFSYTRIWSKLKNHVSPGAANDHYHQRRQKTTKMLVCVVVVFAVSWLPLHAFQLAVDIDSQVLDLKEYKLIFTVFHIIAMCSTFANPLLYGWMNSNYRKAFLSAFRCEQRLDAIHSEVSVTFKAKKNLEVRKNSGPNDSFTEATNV
In short: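 Competition binding used membranes expressing the receptor (0.5 μg protein/well) in 50 mM HEPES, 5 mM MgCl2, 1 mM CaCl2, pH 7.4 with 0.2% ovalbumin, incubated 2 h at room temperature with shaking. Bound radioligand was collected by filtration onto PEI-soaked GF/C filters and counted; IC50 from nonlinear sigmoidal fits.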

Solubility determination = details: for Sol6: pH 6; for Sol7: pH 7
In short: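 First, TFA-salt peptide was added to 0.1 M sodium diphosphate (pH 6.4 or 7.0) to 10 mg/ml and shaken 2 h at room temperature. Next, insoluble material was filtered off. Finally, filtrate and control, each 1 mg/ml in 50% acetonitrile, were compared by reversed-phase chromatography.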

Ki [1]	Sol6 (Solubility determination)	Sol7 (Solubility determination)	SMILES
3.53 nM	>10.0 mg/mL	10.0 mg/mL	CC[C@H](C)[C@H](NC(=O)[C@H](CCC(=O)O)NC(=O)[C@H](CCC(=O)O)NC(=O)[C@@H]1CCCN1C(=O)[C@@H](NC(=O)[C@H](C)NC(=O)[C@H](CC(=O)O)NC(=O)[C@H](CCC(=O)O)NC(=O)[C@H](CCC(=O)O)NC(=O)[C@@H]1CCCN1C(=O)[C@H](CCCCNC(=O)CCCCCNC(=O)CC[C@H](NC(=O)CCCCCCCCCCCCCCCCC(=O)O)C(=O)O)NC(=O)[C@H](CCC(=O)O)NC(=O)[C@@H]1CCCN1C(=O)[C@H](C)NC(=O)CC(C)C)[C@@H](C)O)C(=O)N[C@@H](CCC(N)=O)C(=O)N[C@@H](CCCNC(=N)N)C(=O)N[C@@H](Cc1ccc(O)cc1)C(=O)N[C@@H](Cc1ccc(O)cc1)C(=O)N[C@H](C(=O)N[C@@H](CO)C(=O)N[C@@H](CC(C)C)C(=O)N[C@@H](CCCNC(=N)N)C(=O)N[C@@H](Cc1c[nH]cn1)C(=O)N[C@@H](Cc1ccc(O)cc1)C(=O)N[C@@H](CCC(N)=O)C(=O)N[C@@H](CC(N)=O)C(=O)N[C@@H](Cc1c[nH]c2ccccc12)C(=O)N[C@@H](CC(C)C)C(=O)N[C@H](C(=O)N[C@@H](CCCNC(=N)N)C(=O)N[C@@H](CCC(N)=O)C(=O)N[C@@H](CCCNC(=N)N)C(=O)N[C@@H](Cc1ccc(O)cc1)C(N)=O)[C@@H](C)O)C(C)C [Compound 113, N{alpha-4}-(3-methylbutanoyl)-N{epsilon-7}-(6-[(4S)-4-carboxy-4-(17-carboxyheptadecanamido)butanamido]hexanoyl)-[4A,7K,9E,13T,17I,18Q,22V,28Q,30W,31L]-hPYY(4-36)]
4 nM	0.2 mg/mL	>10.0 mg/mL	CC(C)CC(=O)N[C@@H](C)C(=O)N1CCC[C@H]1C(=O)N[C@@H](C)C(=O)N[C@@H](CCCCNC(=O)CCCCCNC(=O)CC[C@H](NC(=O)CCCCCCCCCCCCCCCCC(=O)O)C(=O)O)C(=O)N1CCC[C@H]1C(=O)N[C@@H](CCC(=O)O)C(=O)N[C@@H](CCC(=O)O)C(=O)N[C@@H](C)C(=O)N[C@@H](C)C(=O)N[C@@H](CCC(=O)O)C(=O)N1CCC[C@H]1C(=O)N[C@@H](CCC(=O)O)C(=O)N[C@@H](CCC(=O)O)C(=O)N[C@@H](CC(C)C)C(=O)N[C@@H](CCC(N)=O)C(=O)N[C@@H](CCCNC(=N)N)C(=O)N[C@@H](Cc1ccc(O)cc1)C(=O)N[C@@H](Cc1ccc(O)cc1)C(=O)N[C@H](C(=O)N[C@@H](C)C(=O)N[C@@H](CC(C)C)C(=O)N[C@@H](CCCNC(=N)N)C(=O)N[C@@H](Cc1c[nH]cn1)C(=O)N[C@@H](Cc1ccc(O)cc1)C(=O)N[C@@H](Cc1ccc(O)cc1)C(=O)N[C@@H](CC(N)=O)C(=O)N[C@@H](Cc1c[nH]c2ccccc12)C(=O)N[C@@H](CC(C)C)C(=O)N[C@H](C(=O)N[C@@H](CCCNC(=N)N)C(=O)N[C@@H](CCC(N)=O)C(=O)N[C@@H](CCCNC(=N)N)C(=O)N[C@@H](Cc1ccc(O)cc1)C(N)=O)[C@@H](C)O)C(C)C [Compound 161, N{alpha-4}-(3-methylbutanoyl)-N{epsilon-7}-(6-[(4S)-4-carboxy-4-(17-carboxyheptadecanamido)butanamido]hexanoyl)-[4A,6A,7K,9E,11A,13E,18Q,22V,23A,28Y,30W,31L]-hPYY(4-36)]
2.28 nM	>10.0 mg/mL	10.0 mg/mL	CC[C@H](C)[C@H](NC(=O)[C@H](CCC(=O)O)NC(=O)[C@H](CCC(=O)O)NC(=O)[C@@H]1CCCN1C(=O)[C@H](C)NC(=O)[C@H](C)NC(=O)[C@H](CC(=O)O)NC(=O)[C@H](CCC(=O)O)NC(=O)[C@H](CCC(=O)O)NC(=O)[C@@H]1CCCN1C(=O)[C@H](CCCCNC(=O)CCCCCNC(=O)CC[C@H](NC(=O)CCCCCCCCCCCCCCCCC(=O)O)C(=O)O)NC(=O)[C@H](CCC(=O)O)NC(=O)[C@@H]1CCCN1C(=O)[C@H](C)NC(=O)CC(C)C)C(=O)N[C@@H](CCC(N)=O)C(=O)N[C@@H](CCCNC(=N)N)C(=O)N[C@@H](Cc1ccc(O)cc1)C(=O)N[C@@H](Cc1ccc(O)cc1)C(=O)N[C@H](C(=O)N[C@@H](CO)C(=O)N[C@@H](CC(C)C)C(=O)N[C@@H](CCCNC(=N)N)C(=O)N[C@@H](Cc1c[nH]cn1)C(=O)N[C@@H](Cc1ccc(O)cc1)C(=O)N[C@@H](Cc1ccc(O)cc1)C(=O)N[C@@H](CC(N)=O)C(=O)N[C@@H](Cc1c[nH]c2ccccc12)C(=O)N[C@@H](CC(C)C)C(=O)N[C@H](C(=O)N[C@@H](CCCNC(=N)N)C(=O)N[C@@H](CCC(N)=O)C(=O)N[C@@H](CCCNC(=N)N)C(=O)N[C@@H](Cc1ccc(O)cc1)C(N)=O)[C@@H](C)O)C(C)C [Compound 170, N{alpha-4}-(3-methylbutanoyl)-N{epsilon-7}-(6-[(4S)-4-carboxy-4-(17-carboxyheptadecanamido)butanamido]hexanoyl)-[4A,7K,9E,13A,17I,18Q,22V,28Y,30W,31L]-hPYY(4-36)]

The remaining lines, values behind:

SMILES	Ki [1]	Sol6 (Solubility determination)	Sol7 (Solubility determination)
CC[C@H](C)[C@H](NC(=O)[C@H](Cc1ccc(O)cc1)NC(=O)[C@H](Cc1ccc(O)cc1)NC(=O)[C@H](CCCNC(=N)N)NC(=O)[C@H](CCC(N)=O)NC(=O)[C@H](CC(C)C)NC(=O)[C@H](CCC(=O)O)NC(=O)[C@H](CCC(=O)O)NC(=O)[C@@H]1CCCN1C(=O)[C@@H](NC(=O)[C@H](C)NC(=O)[C@H](CC(=O)O)NC(=O)[C@H](C)NC(=O)[C@H](CCC(=O)O)NC(=O)[C@@H]1CCCN1C(=O)[C@H](CCCCNC(=O)CCCCCNC(=O)CC[C@H](NC(=O)CCCCCCCCCCCCCCCCC(=O)O)C(=O)O)NC(=O)[C@H](CCC(=O)O)NC(=O)[C@@H]1CCCN1C(=O)[C@H](C)NC(=O)CC(C)C)[C@@H](C)O)C(=O)N[C@@H](CO)C(=O)N[C@@H](CC(C)C)C(=O)N[C@@H](CCCNC(=N)N)C(=O)N[C@@H](Cc1c[nH]cn1)C(=O)N[C@@H](Cc1ccc(O)cc1)C(=O)N[C@@H](Cc1ccc(O)cc1)C(=O)N[C@@H](CC(N)=O)C(=O)N[C@@H](Cc1c[nH]c2ccccc12)C(=O)N[C@@H](CC(C)C)C(=O)N[C@H](C(=O)N[C@@H](CCCNC(=N)N)C(=O)N[C@@H](CCC(N)=O)C(=O)N[C@@H](CCCNC(=N)N)C(=O)N[C@@H](Cc1ccc(O)cc1)C(N)=O)[C@@H](C)O [Compound 25, N{alpha-4}-(3-methylbutanoyl)-N{epsilon-7}-(6-[(4S)-4-carboxy-4-(17-carboxyheptadecanamido)butanamido]hexanoyl)[4A,7K,9E,10A,13T,18Q,22I,28Y,30W,31L]-hPYY(4-36)] (Isovaleryl-APEK([Ahx-γGlu-C18 diacid])PEADATPEELQRYYISLRHYYNWLTRQRY-NH2)	1.55 nM	9.3 mg/mL	9.3 mg/mL
CC(C)CC(=O)N[C@@H](C)C(=O)N1CCC[C@H]1C(=O)N[C@@H](CCC(=O)O)C(=O)N[C@@H](CCCCNC(=O)CCCCCNC(=O)CC[C@H](NC(=O)CCCCCCCCCCCCCCCCC(=O)O)C(=O)O)C(=O)N1CCC[C@H]1C(=O)N[C@@H](CCC(=O)O)C(=O)N[C@@H](CCC(=O)O)C(=O)N[C@@H](CC(=O)O)C(=O)N[C@@H](C)C(=O)N[C@H](C(=O)N1CCC[C@H]1C(=O)N[C@@H](CCC(=O)O)C(=O)N[C@@H](CCC(=O)O)C(=O)N[C@@H](CC(C)C)C(=O)N[C@@H](CCC(N)=O)C(=O)N[C@@H](C)C(=O)N[C@@H](Cc1ccc(O)cc1)C(=O)N[C@@H](Cc1ccc(O)cc1)C(=O)N[C@H](C(=O)N[C@@H](CO)C(=O)N[C@@H](CC(C)C)C(=O)N[C@@H](CCCNC(=N)N)C(=O)N[C@@H](Cc1c[nH]cn1)C(=O)N[C@@H](Cc1ccc(O)cc1)C(=O)N[C@@H](Cc1ccc(O)cc1)C(=O)N[C@@H](CC(N)=O)C(=O)N[C@@H](Cc1c[nH]c2ccccc12)C(=O)N[C@@H](CC(C)C)C(=O)N[C@H](C(=O)N[C@@H](CCCNC(=N)N)C(=O)N[C@@H](CCC(N)=O)C(=O)N[C@@H](CCCNC(=N)N)C(=O)N[C@@H](Cc1ccc(O)cc1)C(N)=O)[C@@H](C)O)C(C)C)[C@@H](C)O [Compound 95, N{alpha-4}-(3-methylbutanoyl)-N{epsilon-7}-(6-[(4S)-4-carboxy-4-(17-carboxyheptadecanamido)butanamido]hexanoyl)-[4A,7K,9E,13T,18Q,19A,22V,28Y,30W,31L]-hPYY(4-36)]	2.92 nM	8.9 mg/mL	7.9 mg/mL
CC[C@H](C)[C@H](NC(=O)[C@H](CCC(=O)O)NC(=O)[C@H](CCC(=O)O)NC(=O)[C@@H]1CCCN1C(=O)[C@@H](NC(=O)[C@H](C)NC(=O)[C@H](CC(=O)O)NC(=O)[C@H](CCC(=O)O)NC(=O)[C@H](CCC(=O)O)NC(=O)[C@@H]1CCCN1C(=O)[C@H](CCCCNC(=O)CCCCCNC(=O)CC[C@H](NC(=O)CCCCCCCCCCCCCCCCC(=O)O)C(=O)O)NC(=O)[C@H](CCC(=O)O)NC(=O)[C@@H]1CCCN1C(=O)[C@H](C)NC(=O)CC(C)C)[C@@H](C)O)C(=O)N[C@@H](CCC(N)=O)C(=O)N[C@@H](CCCNC(=N)N)C(=O)N[C@@H](Cc1ccc(O)cc1)C(=O)N[C@@H](Cc1ccc(O)cc1)C(=O)N1CCC[C@H]1C(=O)N[C@@H](CO)C(=O)N[C@@H](CC(C)C)C(=O)N[C@@H](CCCNC(=N)N)C(=O)N[C@@H](Cc1c[nH]cn1)C(=O)N[C@@H](Cc1ccc(O)cc1)C(=O)N[C@@H](Cc1ccc(O)cc1)C(=O)N[C@@H](CC(N)=O)C(=O)N[C@@H](Cc1c[nH]c2ccccc12)C(=O)N[C@@H](CC(C)C)C(=O)N[C@H](C(=O)N[C@@H](CCCNC(=N)N)C(=O)N[C@@H](CCC(N)=O)C(=O)N[C@@H](CCCNC(=N)N)C(=O)N[C@@H](Cc1ccc(O)cc1)C(N)=O)[C@@H](C)O [Compound 17, N{alpha-4}-(3-methylbutanoyl)-N{epsilon-7}-(6-[(4S)-4-carboxy-4-(17-carboxyheptadecanamido)butanamido]hexanoyl)[4A,7K,9E,13T,17I,18Q,22P,28Y,30W,31L]-hPYY(4-36)]	24.6 nM	10.0 mg/mL	10.0 mg/mL
